According to article PMC7906415, “Metabolite profile of Nectandra oppositifolia Nees & Mart. and assessment of antitrypanosomal activity of bioactive compounds through efficiency analyses” (PLoS ONE, 2021):
Where two headings read alike, the source gives them in different places.

Columns and labels:
[1] = system: Trypanosoma cruzi intracellular amastigotes; assay: Activity against intracellular amastigotes of T. cruzi in infected peritoneal macrophages (EC50); assay type: cell-based, Trypanosoma cruzi (Y strain); conditions: for EC50: Trypanosoma cruzi, Peritoneal macrophage, in Mus musculus, read-out: EC50 ± SD; for EC50 / EC50 ± SD: 48 h; for SI (selectivity index): ratio CC50 against NCTC cells/EC50 against amastigote forms
Procedure: Trypanosoma cruzi trypomastigotes (Y strain) were routinely maintained in Rhesus monkey kidney cells (LLC-MK2 –ATCC CCL 7), using RPMI-1640 medium supplemented with 2% FBS at 37°C in a 5% CO2-humidified incubator. The murine conjunctive cells (NCTC clone 929, ATCC) were maintained in RPMI-1640 medium supplemented with 10% FBS at 37°C in a 5% CO2 –humidified incubator. Peritoneal macrophages, used for the amastigote assays, were obtained by washing the peritoneal cavity of BALB/c mice with RPMI-1640 medium supplemented with 10% FBS and were kept at 37°C in a 5% CO2-humidified incubator. To evaluate the activity against intracellular amastigotes, the peritoneal macrophages obtained from BALB/c mice were infected with trypomastigotes forms of T. cruzi. The macrophages were plated on a 16-well chamber slide (NUNC plate, Merck; 1 x 10^5/well) and incubated for 24 h at 37°C in a 5% CO2-humidified incubator. […] After 2 h of incubation at 37°C in a 5% CO2-humidified incubator, the non-internalized parasites were removed by washing with RPMI-1640 medium. Compounds 1–12 and 7a-7e were incubated by serial dilution (100–1.56 μM) with the infected macrophages (48 h at 37°C, 5% CO2) using benznidazole as the standard drug. At the end of the assay, slides were fixed with MeOH and stained with Giemsa prior to counting under a light microscope (EVOS M5000, THERMO). The EC50 values were calculated as previously described. EC50 and CC50 data represent the mean of two independent representative assays tested in duplicate and were calculated using sigmoid dose-response curves with Graph–Pad Prism 6.0 software (San Diego, CA, USA).

[2] = Cytotoxicity against mammalian cells, MTT assay (CC50); assay type: cell-based, murine; conditions: mouse
Procedure: Trypanosoma cruzi trypomastigotes (Y strain) were routinely maintained in Rhesus monkey kidney cells (LLC-MK2 –ATCC CCL 7), using RPMI-1640 medium supplemented with 2% FBS at 37°C in a 5% CO2-humidified incubator. The murine conjunctive cells (NCTC clone 929, ATCC) were maintained in RPMI-1640 medium supplemented with 10% FBS at 37°C in a 5% CO2 –humidified incubator. Peritoneal macrophages, used for the amastigote assays, were obtained by washing the peritoneal cavity of BALB/c mice with RPMI-1640 medium supplemented with 10% FBS and were kept at 37°C in a 5% CO2-humidified incubator.
The cytotoxicity assays were performed using NCTC cells-clone 929. The cells were counted, seeded (6 x 10^4 cells/well), and incubated with compounds 1–12 and 7a- 7e (200–1.56 μM—serial dilution) for 48 h at 37°C in a 5% CO2-humidified incubator. The optical density was determined using a FilterMax F5 (Molecular Devices) at 570 nm. The 50% cytotoxic concentration (CC50) values were determined by MTT assay. Selectivity index (SI) values were calculated using the ratio: CC50 against NCTC cells/EC50 against parasites form (amastigotes).
EC50 and CC50 data represent the mean of two independent representative assays tested in duplicate and were calculated using sigmoid dose-response curves with Graph–Pad Prism 6.0 software (San Diego, CA, USA).

[3] = system: T. cruzi amastigotes; conditions: cited from earlier work
[4] = system: mammalian cells; parameters: method as in PMID 31132603; conditions: cytotoxicity, previous work; cited from earlier work
[5] = intracellular amastigote forms of T. cruzi in BALB/c peritoneal macrophages, 100–1.56 μM
[6] = NCTC clone 929 cells, 48 h, MTT, 200–1.56 μM, read-out: CC50

**Q.** For `CCOC(=O)C1CCC(=O)N1` (stereo in doubt) [Compound 1, ethyl (R)-pyroglutamate], which EC50 [1, 5] is on record?
**A.** Its EC50 is greater than 100 µM.

**Q.** What about the CC50 at 48 h [2, 6] of the same compound?
**A.** The CC50 at 48 h was greater than 200 µM.

**Q.** With `O=C(Cn1ccnc1[N+](=O)[O-])NCc1ccccc1` [Benznidazole, benznidazole, reference compound] as the compound, how does the EC50 [1, 5] read?
**A.** Its EC50 is 18.7 ± 4.1 µM.

**Q.** And the “SI (selectivity index)” value [1]?
**A.** Its value is greater than 10.7.

**Q.** And the CC50 at 48 h [2, 6]?
**A.** Its CC50 at 48 h is greater than 200 µM.

**Q.** For `O=Cc1c[nH]c2ccccc12` [Compound 2, indole-3-aldehyde], which EC50 [1, 5] is on record?
**A.** The EC50 was greater than 100 µM.

**Q.** And the CC50 at 48 h [2]?
**A.** The CC50 at 48 h was greater than 200 µM.

**Q.** For `CC1=CC(=O)CC(C)(C)[C@@]1(O)/C=C/C(C)=C\C(=O)O` [Compound 3, (+)-(S)-abscisic acid], which EC50 [1] is on record?
**A.** Its EC50 is greater than 100 µM.

**Q.** And the CC50 at 48 h [2, 6]?
**A.** Its CC50 at 48 h is greater than 200 µM.

**Q.** Which EC50 [1, 5] does the source give for `CC1(C)CC(O)CC(C)(O)/C1=C\C(=O)O` (stereo not drawn) [Compound 4, 2Z-(2,4-dihydroxy-2,6,6-trimethylcyclohexylidene)acetic acid] here?
**A.** Its EC50 is 28.2 ± 2.9 µM.

**Q.** What about the “SI (selectivity index)” value [1] of the same compound?
**A.** Its value is greater than 7.1.

**Q.** What about the CC50 at 48 h [2] of the same compound?
**A.** Its CC50 at 48 h is greater than 200 µM.

**Q.** Which results are given for `O=C(O)CCCCCCCC(=O)O` [Compound 5, azelaic acid]?
**A.** EC50 [1, 5]: > 100 µM; CC50 at 48 h [2, 6]: > 200 µM

**Q.** With `COc1cc(C(=O)O)ccc1O` [Compound 6, vanillic acid] as the compound, how does the EC50 [1, 5] read?
**A.** Its EC50 is greater than 100 µM.

**Q.** And the CC50 at 48 h [2, 6]?
**A.** The CC50 at 48 h was greater than 200 µM.

**Q.** Which EC50 [1, 5] does the source give for `CCOC(=O)c1ccc(O)c(O)c1` [Compound 7, ethyl protocatechuate] here?
**A.** Its EC50 is 18.1 ± 0.3 µM.

**Q.** What about the CC50 at 48 h [2, 6] of the same compound?
**A.** The CC50 at 48 h was greater than 200 µM.

**Q.** With `COC(=O)c1ccc(O)c(O)c1` [Compound 7a] as the compound, how does the EC50 [1, 5] read?
**A.** The EC50 was greater than 100 µM.

**Q.** What about the “EC50 ± SD” value [1, 5] of the same compound?
**A.** The value was “inactive”.

**Q.** And the CC50 at 48 h [2, 6]?
**A.** The CC50 at 48 h was greater than 200 µM.

**Q.** Which results are given for `CCCOC(=O)c1ccc(O)c(O)c1` [Compound 7b]?
**A.** EC50 [1, 5]: 20.4 ± 4.2 µM; SI (selectivity index) [1]: > 9.8; CC50 at 48 h [2, 6]: > 200 µM

**Q.** With `CCCCOC(=O)c1ccc(O)c(O)c1` [Compound 7c] as the compound, how does the EC50 [1, 5] read?
**A.** Its EC50 is 19.4 ± 6.3 µM.

**Q.** What about the “SI (selectivity index)” value [1] of the same compound?
**A.** The value was greater than 10.3.

**Q.** What about the CC50 at 48 h [2, 6] of the same compound?
**A.** The CC50 at 48 h was greater than 200 µM.

**Q.** Which EC50 [1, 5] does the source give for `CCCCCOC(=O)c1ccc(O)c(O)c1` [Compound 7d] here?
**A.** The EC50 was 12.3 ± 3.8 µM.

**Q.** What about the “SI (selectivity index)” value [1] of the same compound?
**A.** Its value is greater than 16.3.

**Q.** And the CC50 at 48 h [2, 6]?
**A.** Its CC50 at 48 h is greater than 200 µM.

**Q.** For `CCCCCCOC(=O)c1ccc(O)c(O)c1` [Compound 7e], which EC50 [1, 5] is on record?
**A.** The EC50 was 11.7 ± 2.7 µM.

**Q.** What about the “SI (selectivity index)” value [1] of the same compound?
**A.** The value was greater than 17.1.

**Q.** And the CC50 at 48 h [2, 6]?
**A.** Its CC50 at 48 h is greater than 200 µM.

**Q.** For `COc1cc2ccc(=O)oc2cc1O` [Compound 8, scopoletin], which EC50 [1, 5] is on record?
**A.** Its EC50 is greater than 100 µM.

**Q.** What about the CC50 at 48 h [2, 6] of the same compound?
**A.** Its CC50 at 48 h is greater than 200 µM.

**Q.** What does the source list for `COc1cc(C(=O)[C@H](CO)c2ccc(O)c(OC)c2)ccc1O` [Compound 9, (-)-evofolin B]?
**A.** EC50 [1, 5]: 27.8 ± 0.2 µM; SI (selectivity index) [1]: > 7.2; CC50 at 48 h [2, 6]: > 200 µM

**Q.** With `COc1cc(/C=C/C(=O)NCCc2ccc(O)cc2)ccc1O` [Compound 10, moupinamide] as the compound, how does the EC50 [1, 5] read?
**A.** Its EC50 is greater than 100 µM.

**Q.** And the CC50 at 48 h [2, 6]?
**A.** The CC50 at 48 h was greater than 200 µM.

**Q.** With `COc1cc(C2OC(c3ccc(O)c(OC)c3)C(C)C2C)ccc1O` (stereo not drawn) [Compound 11, verrucosin] as the compound, how does the EC50 [1, 5] read?
**A.** Its EC50 is 36.8 ± 4.9 µM.

**Q.** What about the “SI (selectivity index)” value [1] of the same compound?
**A.** Its value is greater than 5.4.

**Q.** And the CC50 at 48 h [2, 6]?
**A.** The CC50 at 48 h was greater than 200 µM.

**Q.** Which EC50 [1, 5] does the source give for `COc1cc([C@H]2O[C@@H](c3ccc(O)c(OC)c3)[C@H](C)[C@@H]2C)ccc1O` [Compound 12, nectandrin B] here?
**A.** Its EC50 is 31 ± 0.3 µM.

**Q.** What about the “SI (selectivity index)” value [1] of the same compound?
**A.** The value was greater than 6.4.

**Q.** And the CC50 at 48 h [2, 6]?
**A.** The CC50 at 48 h was greater than 200 µM.

**Q.** With `C=C1OC(=O)/C(=C\CCCCCCCCCCCCCCC)[C@H]1O` [isolinderanolide E] as the compound, how does the EC50 ([3]; amastigote forms of T. cruzi) read?
**A.** The EC50 was 10.1 µM.

**Q.** With `CCCCCCCCOC(=O)c1ccc(O)c(O)c1` [n-octyl ester of protocatechuic acid] as the compound, how does the EC50 ([3]; T. cruzi amastigotes) read?
**A.** Its EC50 is 13.9 µM.

**Q.** What about the CC50 [4] of the same compound?
**A.** The CC50 was 108 µM.

**Q.** Which EC50 ([3]; T. cruzi amastigotes) does the source give for `CCCCCCCCOC(=O)c1ccc(O)c(OC)c1` [n-octyl ester of vanillic acid] here?
**A.** Its EC50 is 6.8 µM.

**Q.** What does the source list for `O=C(O)c1ccc(O)c(O)c1` [protocatechuic acid, reference compound]?
**A.** EC50 [1]: > 100 µM; EC50 ± SD [1, 5]: inactive; CC50 at 48 h [2, 6]: > 200 µM

**Q.** With Isolinderanolide D as the compound, how does the EC50 ([3]; amastigote forms of T. cruzi) read?
**A.** Its EC50 is 25.3 µM.
